Source: patent US20050267072A1, “Pharmaceutical compositions containing dually acting inhibitors of neutral endopeptidase for the treatment of sexual dysfunction” (Solvay Pharmaceuticals GmbH, priority 2004, published 2005)
pIC50: −log10 of the molar value. Where two headings read alike, the source gives them in different places.

Experiments:
[1] = system: human corpus cavernosum; assay: Big-ET-induced contraction of human cavernosal strips in vitro; format: cell-based; conditions: compounds at 10 μM, 20 min incubation; big-ET-1 10^−8 M; mean of n corpus cavernosum samples
Description: 2. Influence of Test Compounds on Big-ET-Induced Contraction of Human Cavernosal Strips In Vitro
Human erectile tissues were obtained from the corpus cavernosum of 9 patients undergoing surgery for implantation of penile prosthesis as treatment of erectile dysfunction or penile congenital curvature. After surgery, the tissue samples were transported and stored at 4° C. in RPMI-1640 medium containing HEPES (23.8 mM), penicillin (100 IU/ml) and streptomycin (0.1 mg/ml) until use (within 24 hours). Eight sections of 4×2×2 mm were excised from the corpus cavernosum of each donor for each experiment. Cavernosal strips were suspended in 5 ml organ chambers filled with Krebs-HEPES buffer. Organ chambers were maintained at 37° C. and continuously bubbled with 95% O2 and 5% CO2 to maintain a pH at 7.4. The cavernosal strips were connected to force transducers for isometric tension recording (Pioden controls Ltd, UK), and an initial tension of 1 g was applied. Following amplification, the tension changes were digitalized via a Mac Lab™/8 using Chart software (AD Instruments Ltd). The tissue preparation were allowed to equilibrate for 90 minutes, while being washed periodically (every 15 minutes) with fresh Krebs-HEPES buffer. When a stable resting tension was attained, the strips were set to at least 500 mg of basal tension. Following the equilibration period, the erectile tissues were primed with KCl 80 mM during 10 min. Once this priming period was achieved, the strips were washed by fresh Krebs-HEPES solution and allowed to re-equilibrate for 30 minutes at 500 mg of tension.
Once the strips were stabilized after the priming period, they were incubated with one of the following compounds (all at 10 μM, unless indicated otherwise) during 20 min: compound of Formula IV, compound of Formula V, SM-19712 (a selective and potent endothelin converting enzyme-1 inhibitor), DL-thiorphan (a selective and potent NEP inhibitor), and the combination of SM-19712, 10 μM and DL-thiorphan, and the common vehicle (phosphate buffer).
The strips were then exposed to the half-maximally effective concentration of big-ET-1 (10^−8 M) determined in the preliminary experiments until a stable response was obtained.
Contractile responses were expressed as absolute change in maximal developed tension (in mg). To reduce the potential heterogeneity of responses between strips, the contraction to big-ET-1 was normalized by the contractile responses to KCl 80 mM obtained during the priming period.
The results are from duplicate or triplicate determinations from a single corpus cavernosum sample were averaged and values are expressed as percentage of the contractile responses induced by 80 mM of KCl, as mean […]SEM, for n corpus cavernosum samples.

[2] = molecular target: T1, hSEP (His6-tagged hSEP ectodomain) (Homo sapiens, UniProt Q495T6); assay: Inhibition of enzymatic breakdown of CNP and VIP by hSEP (in vitro enzymatic assay, HPLC); format: biochemical; conditions: 15 min preincubation, 60 min at 37° C.
T1 construct: His6-tagged hSEP ectodomain; His6; purchased Innogenetics, Ghent, Belgium
T1 sequence (Q495T6 49-779 limits assumed): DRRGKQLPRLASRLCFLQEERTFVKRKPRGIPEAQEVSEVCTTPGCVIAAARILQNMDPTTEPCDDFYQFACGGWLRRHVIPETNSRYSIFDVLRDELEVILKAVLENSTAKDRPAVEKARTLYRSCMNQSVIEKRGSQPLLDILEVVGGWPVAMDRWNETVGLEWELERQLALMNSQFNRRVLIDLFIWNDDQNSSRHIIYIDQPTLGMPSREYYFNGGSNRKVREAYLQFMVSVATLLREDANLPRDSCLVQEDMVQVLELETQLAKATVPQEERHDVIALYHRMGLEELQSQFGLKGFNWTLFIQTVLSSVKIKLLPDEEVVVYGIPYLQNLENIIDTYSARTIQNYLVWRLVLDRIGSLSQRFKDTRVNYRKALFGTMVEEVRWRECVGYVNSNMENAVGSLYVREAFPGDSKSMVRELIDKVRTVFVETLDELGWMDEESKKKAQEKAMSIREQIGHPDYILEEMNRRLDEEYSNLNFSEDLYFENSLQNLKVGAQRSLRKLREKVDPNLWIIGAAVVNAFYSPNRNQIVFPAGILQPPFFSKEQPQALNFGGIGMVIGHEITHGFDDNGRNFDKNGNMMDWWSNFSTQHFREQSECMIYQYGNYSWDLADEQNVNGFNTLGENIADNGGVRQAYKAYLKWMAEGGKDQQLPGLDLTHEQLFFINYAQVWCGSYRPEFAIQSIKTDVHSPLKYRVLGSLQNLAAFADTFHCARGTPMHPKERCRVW
Description: (§1) 1. Inhibition of Enzymatic Breakdown of CNP and VIP by the Test Compounds
(§2) The inhibition of the enzymatic breakdown of CNP and VIP by the test compounds of Formula I according to the invention was measured in an enzymatic in vitro assay according to the following protocol:
(§3) • a) hSEP (sol hu)(his)6; or: His6-tagged hSEP ectodomain. • stock solution: 53 μg/ml in 20 mM HEPES pH 7.2, 5% glycerol, 0.005% Tween20, 100 mM NaCl, purity>99% • working solution: stock solution diluted with assay buffer to 5 μg/ml • Supplier: Innogenetics, Ghent, Belgium. Preparation and purification of the protein were performed as described in WO 02/094176. • b) NEP (prepared from pig kidney cortex) • stock solution: 120 μg/ml in 20 mM bisTris, purity>95% • working solution: stock solution diluted with assay buffer to 5 μg/ml • Supplier: Dr. Philippe Crine, Univ. of Montreal, Canada Substrates: • a) VIP • b) CNP (32-53) • stock solution: 100 μM in assay buffer • Supplier: Bachem, Weil am Rhein, Germany
(§4) Assay buffer: 100 mM Tris pH 7.0, 250 mM NaCl
(§5) All test compounds were dissolved in DMSO at 10 mM and further diluted with assay buffer.
(§6) 70 μl of assay buffer, 10 μl of enzyme working solution (NEP or hSEP) and 10 μl of a test compound solution were mixed in an Eppendorf vial and preincubated at 37° C. for 15 minutes. Then, 10 μl of peptide stock solution (VIP or CNP) was added and the reaction mixture was incubated at 37° C. for 60 min. to allow enzymatic hydrolysis. The enzymatic reaction was subsequently terminated by heating to 95° C. for 5 min. After centrifugation (Heraeus Biofuge B, 3 min) the supernatant was subjected to HPLC.
(§7) For separating the remaining substrate from the cleavage products, a reversed phase HPLC technique with a CC 125/4 Nucleosil 300/5 C18 RP column and a CC 8/4 Nucleosil 100/5 C18 precolumn (Macherey-Nagel, Duren, Germany) was used. 60 μl of the reaction samples were injected into the HPLC and the column was eluted at a flow rate of 1 ml/min with the following gradient: […]
(§8) All peptides were detected by absorbance at 214 nm (UV spectroscopy).
(§9) Basis of the calculation of % inhibition is the peak area of the undegraded peptide (VIP or CNP) for an inhibitor containing sample X in comparison to samples containing only peptide (blank) or peptide and enzyme without inhibitor (control) according to the following equation: % inhib=100*(X−control)/(blank−control)
(§10) All samples were run in duplicate and mean values were used. A solvent control (0.1% DMSO) was added to each assay run.

[3] = molecular target: T2, NEP (prepared from pig kidney cortex) (Sus scrofa, UniProt A0A4X1SQE6); assay: Inhibition of enzymatic breakdown of CNP and VIP by NEP (in vitro enzymatic assay, HPLC); format: biochemical; conditions: 15 min preincubation, 60 min at 37° C.
Description: as §1, §2, §3, §4, §5, §6, §7, §8, §9, §10

[4] = molecular target: T1, hSEP (His6-tagged hSEP ectodomain); assay: Activity assay: breakdown of VIP and CNP by hSEP; format: biochemical; conditions: 120 min at 37° C., no inhibitor
Description: as §3, §4
(§11) 80 μl of assay buffer, 10 μl of enzyme working solution (NEP or hSEP) and 10 μl of peptide stock solution (VIP or CNP) were mixed in an Eppendorf vial and incubated for 120 min. at 37° C. The enzymatic reaction was subsequently terminated by heating to 95° C. for 5 min. […]
as §8
(§12) The percentage (=%) of hydrolysis was calculated on the basis of the peak area of the undegraded peptide for an enzyme containing sample Y in correlation to a sample containing the same concentration of peptide without enzyme (blank) by the following equation: % hydrolysis=100*(blank−Y) […]

[5] = molecular target: T2, NEP (prepared from pig kidney cortex); assay: Activity assay: breakdown of VIP and CNP by NEP; format: biochemical; conditions: 120 min at 37° C., no inhibitor
Description: as §3, §4, §11, §8, §12

[6] = system: patients with ED; conditions: intracavernosal injection, combined with the α-adrenoceptor antagonist phentolamine; cited from earlier work
[7] = substrate CNP (32-53), read-out: inhibition of breakdown of CNP by hSEP IC50
[8] = substrate VIP, read-out: inhibition of breakdown of VIP by hSEP IC50
[9] = inhibition of breakdown of CNP by NEP IC50, substrate CNP (32-53)
[10] = inhibition of breakdown of VIP by NEP IC50, substrate VIP
[11] = substrate CNP (32-53), read-out: inhibition of breakdown of CNP by NEP IC50
[12] = substrate VIP, read-out: inhibition of breakdown of VIP by NEP IC50

T2 sequence (A0A4X1SQE6 entry or part of it): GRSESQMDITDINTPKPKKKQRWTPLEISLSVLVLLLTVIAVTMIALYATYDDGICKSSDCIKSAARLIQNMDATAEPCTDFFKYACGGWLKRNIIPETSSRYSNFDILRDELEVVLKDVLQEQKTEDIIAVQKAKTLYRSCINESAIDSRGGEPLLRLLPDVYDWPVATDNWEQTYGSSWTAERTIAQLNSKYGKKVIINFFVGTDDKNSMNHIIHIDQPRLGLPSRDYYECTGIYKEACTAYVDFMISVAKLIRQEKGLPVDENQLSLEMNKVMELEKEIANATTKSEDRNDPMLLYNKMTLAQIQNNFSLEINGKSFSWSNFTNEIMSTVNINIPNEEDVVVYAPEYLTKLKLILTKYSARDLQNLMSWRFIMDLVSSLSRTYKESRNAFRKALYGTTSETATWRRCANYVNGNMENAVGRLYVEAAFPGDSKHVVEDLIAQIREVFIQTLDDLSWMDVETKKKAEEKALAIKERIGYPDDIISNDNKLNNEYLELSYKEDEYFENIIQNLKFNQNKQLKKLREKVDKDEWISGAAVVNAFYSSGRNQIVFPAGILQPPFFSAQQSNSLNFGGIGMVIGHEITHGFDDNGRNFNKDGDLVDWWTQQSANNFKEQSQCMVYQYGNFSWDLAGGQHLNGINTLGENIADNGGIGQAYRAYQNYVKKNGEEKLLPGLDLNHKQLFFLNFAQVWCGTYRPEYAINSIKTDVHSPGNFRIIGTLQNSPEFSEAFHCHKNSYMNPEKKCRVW

For `O=C(O)CNC(=O)C(CS)Cc1ccccc1` (racemic) [thiorphan, reference compound], the “Maximal big-ET-induced contraction” value [1] was 91.57 percentage of the contractile responses induced by 80 mM of KCl, the pIC50 [2, 7] was < 6.00 and the pIC50 [2, 8] was < 6.00. The pIC50 [3, 9] was 8.08 and the pIC50 [3, 10] was 8.19.

In the case of `CCOC(=O)C(CCc1ccccc1)CC1(C(=O)NC2CCc3ccccc3N(CC(=O)O)C2=O)CCCC1` (stereo not shown) [compound of Formula II, 2-[1-(1-carboxymethyl-2-oxo-2,3,4,5-tetrahydro-1H-benzo[b]azepin-3-ylcarbamoyl)-cyclopentylmethyl]-4-phenyl-butyric acid ethyl ester], the pIC50 [2, 7] was 9.15, the pIC50 [2, 8] was 8.46 and the pIC50 [3, 11] was 8.12. It also gave a pIC50 [3, 12] of 8.48.

For `O=C(O)CN1C(=O)C(NC(=O)C2(CC(CCc3ccccc3)C(=O)O)CCCC2)CCc2ccccc21` (stereo not shown) [Cpd. of Formula IV, 2-[1-(1-carboxymethyl-2-oxo-2,3,4,5-tetrahydro-1H-benzo[b]azepin-3-ylcarbamoyl)-cyclopentylmethyl]-4-phenyl-butyric acid], the “Maximal big-ET-induced contraction” value [1] was 32.80 percentage of the contractile responses induced by 80 mM of KCl.

For `O=C(O)CN1C(=O)C(NC(=O)C2(CC(CCc3cccc4ccccc34)C(=O)O)CCCC2)CCc2ccccc21` (stereo not shown) [cpd. of Formula V, 2-[1-(1-carboxymethyl-2-oxo-2,3,4,5-tetrahydro-1H-benzo[b]azepin-3-ylcarbamoyl)-cyclopentylmethyl]-4-naphthalen-1-yl-butyric acid], the “Maximal big-ET-induced contraction” value [1] was 49.60 percentage of the contractile responses induced by 80 mM of KCl.

For `Cc1nn(-c2ccccc2)c(NC(=O)NS(=O)(=O)c2ccc(Cl)cc2)c1C#N` [SM-19712, reference compound], the “Maximal big-ET-induced contraction” value [1] was 85.10 percentage of the contractile responses induced by 80 mM of KCl.

`CCOC(=O)[C@H](CCc1cccc2ccccc12)CC1(C(=O)N[C@H]2CCc3ccccc3N(CC(=O)O)C2=O)CCCC1` [compound of Formula III, {(3S)-3-[({1-[(2R)-2-(ethoxycarbonyl)-4-(1-naphthyl)butyl]cyclopentyl}carbonyl)amino]-2-oxo-2,3,4,5-tetrahydro-1H-1-benzazepin-1-yl}acetic acid] showed a pIC50 [2, 7] of 8.66, a pIC50 [2, 8] of 8.54 and a pIC50 [3, 11] of 8.18. The pIC50 [3, 12] was 8.38.

For “CNP: C-type natriuretic peptide, substrate CNP (32-53), supplier Bachem”, the “degradation at t = 2 h by hSEP” value [4] was 46% and the “degradation at t = 2 h by NEP” value [5] was 39%.

For “VIP: vasoactive intestinal peptide, substrate, supplier Bachem”, the “degradation at t = 2 h by hSEP” value [4] is listed as 36%, the “degradation at t = 2 h by NEP” value [5] is listed as 28% and the “response rate (erections sufficient for sexual intercourse)” value [6] is listed as 67%.

`CCOP(=O)(CC1(C(=O)N[C@H]2CCc3ccccc3N(CC(=O)OC(C)(C)C)C2=O)CCCC1)OCc1ccccc1` (stereo partly drawn) [compound 2, (3S)-(3-{[1-(Benzyloxy-ethoxy-phosphorylmethyl)-cyclopentanecarbonyl]-amino}-2-oxo-2,3,4,5-tetrahydro-benzo[b]azepin-1-yl)-acetic acid tert-butyl ester] gave a pIC50 [2, 7] of 8.55, a pIC50 [2, 8] of 8.40 and a pIC50 [3, 9] of 8.64. For the same molecule, the pIC50 [3, 10] was 8.80.
